Reference: ChEMBL document CHEMBL1201862, “PubChem BioAssay data set” (2004)
The source made the active and inactive calls. Unless noted, no cut-off for these calls is given here.

How the values were obtained:
[1] = biological target: Muscarinic acetylcholine receptor M1 (Rattus norvegicus, UniProt P08482); assay: rat M1 positive allosteric modulator potency, dose response, cell-based, calcium mobilization, CHO-K1, ACh EC20 (AID 2425); assay type: functional
[2] = biological target: Muscarinic acetylcholine receptor M3 (Homo sapiens, UniProt P20309); assay: human M3 receptor positive allosteric modulation, dose response, selectivity assay for M1 PAM project, cell-based, CHO-K1 hM3, Fluo-4 calcium, ACh EC20 (AID 2428); assay type: functional
Sequence of Muscarinic acetylcholine receptor M3 (P20309 whole entry): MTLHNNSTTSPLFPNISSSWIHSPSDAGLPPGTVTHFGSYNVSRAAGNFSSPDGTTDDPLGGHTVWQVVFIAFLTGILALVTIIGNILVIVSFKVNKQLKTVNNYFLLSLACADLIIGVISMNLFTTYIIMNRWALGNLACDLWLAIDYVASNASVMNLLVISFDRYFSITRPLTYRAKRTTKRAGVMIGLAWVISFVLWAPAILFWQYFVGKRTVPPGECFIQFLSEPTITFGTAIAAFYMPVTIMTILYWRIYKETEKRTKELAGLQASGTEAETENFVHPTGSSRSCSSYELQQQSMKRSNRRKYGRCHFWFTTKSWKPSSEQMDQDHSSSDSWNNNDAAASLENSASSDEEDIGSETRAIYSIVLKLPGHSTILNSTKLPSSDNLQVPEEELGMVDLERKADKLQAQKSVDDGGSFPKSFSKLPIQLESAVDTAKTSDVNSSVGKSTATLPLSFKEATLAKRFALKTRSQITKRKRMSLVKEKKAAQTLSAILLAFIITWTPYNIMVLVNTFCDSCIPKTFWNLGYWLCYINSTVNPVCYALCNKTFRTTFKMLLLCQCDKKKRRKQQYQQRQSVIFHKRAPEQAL

[3] = biological target: Muscarinic acetylcholine receptor M4 (Rattus norvegicus, UniProt P08485); assay: rat M4 receptor positive allosteric modulation check, dose response, selectivity assay for M1 muscarinic PAM project, cell-based, CHO-K1 rat M4/Gqi5, Fluo-4 calcium, ACh EC20 (AID 2438); assay type: functional
Sequence of Muscarinic acetylcholine receptor M4 (P08485 whole entry): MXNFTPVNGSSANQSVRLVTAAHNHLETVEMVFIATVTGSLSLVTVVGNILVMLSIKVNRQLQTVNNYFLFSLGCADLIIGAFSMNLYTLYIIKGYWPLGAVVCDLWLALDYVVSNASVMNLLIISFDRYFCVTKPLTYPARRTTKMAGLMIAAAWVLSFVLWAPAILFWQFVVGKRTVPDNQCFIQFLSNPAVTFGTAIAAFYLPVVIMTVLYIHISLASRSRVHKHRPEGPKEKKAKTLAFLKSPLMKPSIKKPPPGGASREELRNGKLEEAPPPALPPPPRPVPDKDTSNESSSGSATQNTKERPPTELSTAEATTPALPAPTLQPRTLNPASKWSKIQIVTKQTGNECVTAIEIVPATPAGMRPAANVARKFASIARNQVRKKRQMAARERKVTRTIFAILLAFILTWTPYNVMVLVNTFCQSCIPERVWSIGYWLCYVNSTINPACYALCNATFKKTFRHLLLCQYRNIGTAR

NADPH oxidase 1 [4] = biological target: T1, NADPH oxidase 1 (Homo sapiens, UniProt Q9Y5S8); assay: Luminescence-based cell-based dose response assay to identify inhibitors of NADPH oxidase 1 (NOX1).; assay type: functional
T1 sequence (Q9Y5S8 whole entry): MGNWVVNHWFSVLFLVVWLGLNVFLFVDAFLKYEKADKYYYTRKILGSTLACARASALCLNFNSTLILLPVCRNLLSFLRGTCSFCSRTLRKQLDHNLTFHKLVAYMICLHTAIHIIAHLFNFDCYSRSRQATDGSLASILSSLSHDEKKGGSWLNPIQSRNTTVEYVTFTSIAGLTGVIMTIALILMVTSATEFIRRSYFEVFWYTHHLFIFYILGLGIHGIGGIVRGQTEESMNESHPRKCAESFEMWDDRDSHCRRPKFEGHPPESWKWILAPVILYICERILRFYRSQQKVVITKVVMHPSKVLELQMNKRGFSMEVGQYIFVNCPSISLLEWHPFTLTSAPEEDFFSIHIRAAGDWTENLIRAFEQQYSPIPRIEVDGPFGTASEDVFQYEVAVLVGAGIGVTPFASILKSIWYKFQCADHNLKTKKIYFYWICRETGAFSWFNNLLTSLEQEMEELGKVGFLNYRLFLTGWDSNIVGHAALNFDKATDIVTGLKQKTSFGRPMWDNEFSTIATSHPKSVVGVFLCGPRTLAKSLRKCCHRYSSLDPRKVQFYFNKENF

[5] = biological target: Induced myeloid leukemia cell differentiation protein Mcl-1 (Homo sapiens, UniProt Q07820); assay type: functional
Sequence of Induced myeloid leukemia cell differentiation protein Mcl-1 (Q07820 whole entry): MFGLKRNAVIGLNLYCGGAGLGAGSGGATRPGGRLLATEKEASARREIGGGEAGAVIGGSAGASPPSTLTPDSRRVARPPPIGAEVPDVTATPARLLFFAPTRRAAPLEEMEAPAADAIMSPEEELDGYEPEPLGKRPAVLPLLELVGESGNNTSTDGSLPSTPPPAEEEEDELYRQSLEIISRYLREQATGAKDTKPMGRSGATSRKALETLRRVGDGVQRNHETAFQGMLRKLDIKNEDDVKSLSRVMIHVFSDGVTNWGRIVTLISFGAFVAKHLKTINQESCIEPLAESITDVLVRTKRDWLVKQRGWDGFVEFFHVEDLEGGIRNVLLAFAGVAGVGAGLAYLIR

[6] = biological target: Epstein-Barr nuclear antigen 1 (Epstein-Barr virus (strain B95-8) (HHV-4) (Human herpesvirus 4), UniProt P03211); assay: EBNA-1 inhibitors, dose response, biochemical, fluorescence polarization, 1536-well (AID 2381); parameters: species or system human gammaherpesvirus 4;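 note: fluorescence polarization of a Cy5 DNA probe bound by EBNA-1 protein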
Sequence of Epstein-Barr nuclear antigen 1 (P03211 whole entry): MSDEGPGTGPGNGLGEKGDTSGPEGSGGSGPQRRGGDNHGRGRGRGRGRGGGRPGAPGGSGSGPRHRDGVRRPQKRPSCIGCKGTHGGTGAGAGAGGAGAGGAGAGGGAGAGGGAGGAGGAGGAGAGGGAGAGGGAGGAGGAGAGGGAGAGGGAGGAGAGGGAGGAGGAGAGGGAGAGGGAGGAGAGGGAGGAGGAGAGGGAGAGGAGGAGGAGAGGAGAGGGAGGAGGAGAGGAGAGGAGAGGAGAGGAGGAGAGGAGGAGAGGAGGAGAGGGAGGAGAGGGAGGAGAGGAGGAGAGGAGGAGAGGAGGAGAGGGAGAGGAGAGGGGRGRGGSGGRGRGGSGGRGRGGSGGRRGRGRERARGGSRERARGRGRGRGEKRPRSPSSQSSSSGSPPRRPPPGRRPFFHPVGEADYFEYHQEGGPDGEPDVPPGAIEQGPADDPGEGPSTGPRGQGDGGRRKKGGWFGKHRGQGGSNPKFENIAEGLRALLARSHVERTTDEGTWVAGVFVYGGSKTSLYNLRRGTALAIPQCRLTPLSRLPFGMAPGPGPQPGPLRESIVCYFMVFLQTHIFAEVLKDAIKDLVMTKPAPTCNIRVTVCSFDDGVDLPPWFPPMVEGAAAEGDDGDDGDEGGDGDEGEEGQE

[7] = biological target: Lytic switch protein BZLF1 (Epstein-Barr virus (strain B95-8) (HHV-4) (Human herpesvirus 4), UniProt P03206); assay: EBV ZTA inhibitors, dose response, counter-screen for EBNA-1 inhibitor project, biochemical, fluorescence polarization, Epstein-Barr virus, 1536-well (AID 2377); parameters: species or system human gammaherpesvirus 4;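 note: fluorescence polarization of Cy5-labelled ZRE DNA probe bound by purified Zta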
Sequence of Lytic switch protein BZLF1 (P03206 whole entry): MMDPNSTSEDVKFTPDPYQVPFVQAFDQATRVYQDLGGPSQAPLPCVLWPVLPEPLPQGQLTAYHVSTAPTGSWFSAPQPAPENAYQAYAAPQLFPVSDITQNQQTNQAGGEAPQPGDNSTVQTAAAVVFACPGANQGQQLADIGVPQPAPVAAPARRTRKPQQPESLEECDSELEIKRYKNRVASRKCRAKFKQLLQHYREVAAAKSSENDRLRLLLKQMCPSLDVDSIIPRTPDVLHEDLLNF

[8] = biological target: T2, Neuropeptide Y receptor type 1 (Homo sapiens, UniProt P25929); assay: Fluorescence-based counterscreen for potentiators or agonists of NPY-Y2: cell-based high-throughput dose response assay for potentiators or agonists of NPY-Y1.; assay type: functional
T2 sequence (P25929 whole entry): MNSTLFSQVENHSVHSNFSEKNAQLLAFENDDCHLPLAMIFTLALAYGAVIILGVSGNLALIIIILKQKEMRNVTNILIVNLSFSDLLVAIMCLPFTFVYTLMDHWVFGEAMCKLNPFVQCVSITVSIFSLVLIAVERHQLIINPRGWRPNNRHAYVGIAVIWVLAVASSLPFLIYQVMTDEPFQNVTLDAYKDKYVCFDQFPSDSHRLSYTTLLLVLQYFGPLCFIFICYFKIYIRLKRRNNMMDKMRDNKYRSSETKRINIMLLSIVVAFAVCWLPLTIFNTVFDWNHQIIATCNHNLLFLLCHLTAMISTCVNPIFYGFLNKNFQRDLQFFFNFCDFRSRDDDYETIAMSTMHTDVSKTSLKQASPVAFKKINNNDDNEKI

[9] = Luminescent dose response cell-based high throughput screening assay for inhibitors of the Janus kinase 2 mutant JAK2V617F. [Related pubchem assays: 1446 (Primary screen.), 1521 (Confirmation assay.), 1486 (Counter screen.)]; assay type: functional
[10] = NIH-3T3 fibroblast cytotoxicity, dose response, cytotoxicity control, cell-based, fluorescence, Alamar Blue, secondary assay (AID 2327); assay type: functional;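 note: NIH-3T3 mouse fibroblasts cultured with fluconazole at 8 µg/mL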
[11] = biological target: T3, RNA-binding protein pos-1 (Caenorhabditis elegans, UniProt G5EF15); assay: inhibitors of POS-1/mex-3 RNA binding, dose response, biochemical, fluorescence polarization (AID 1964);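 note: purified POS-1 fused to maltose binding protein made in E. coli; potency of compounds blocking POS-1 binding to fluorescent RNA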
T3 sequence (G5EF15 whole entry): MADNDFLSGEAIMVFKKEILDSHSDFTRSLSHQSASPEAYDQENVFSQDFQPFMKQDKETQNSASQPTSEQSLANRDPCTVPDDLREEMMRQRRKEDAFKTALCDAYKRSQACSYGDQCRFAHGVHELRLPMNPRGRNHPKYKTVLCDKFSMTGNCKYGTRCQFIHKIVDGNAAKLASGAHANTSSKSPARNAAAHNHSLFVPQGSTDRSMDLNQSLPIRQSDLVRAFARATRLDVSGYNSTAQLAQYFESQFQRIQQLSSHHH

HEK293 = assay: Fluorescence-based counterscreen for potentiators or agonists of NPY-Y2: cell-based high-throughput dose response assay to identify inhibitors of cyclic nucleotide gated ion channel (CNGC) activity. In this assay, the parental HEK293 cell line transfected with a cyclic-nucleotide gated ion channel (CNGC)-based cAMP sensor is used to measure inhibition of isoproterenol-induced CNGC activity by test compound.; assay type: functional; conditions: Homo sapiens;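 note: stimulus is 1 µM isoproterenol at EC100 plus PDE inhibitor Ro 20-1724 at 25 µM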
[12] = biological target: T4, Neuropeptide Y receptor type 2 (Homo sapiens, UniProt P49146); assay: Fluorescence-based cell-based high-throughput dose response assay for agonists of NPY-Y2. [Related pubchem assays: 1703 (Screening assay (CNGC inhibitors).), 1359 (Screening assay (NPY-Y2 potentiators or agonists).), 1304 (Screening assay (NPY-Y1 potentiators or agonists).), 1710 (Screening assay (NPY-Y2 agonists).), 1791 (Summary AID.)]; assay type: functional
T4 sequence (P49146 whole entry): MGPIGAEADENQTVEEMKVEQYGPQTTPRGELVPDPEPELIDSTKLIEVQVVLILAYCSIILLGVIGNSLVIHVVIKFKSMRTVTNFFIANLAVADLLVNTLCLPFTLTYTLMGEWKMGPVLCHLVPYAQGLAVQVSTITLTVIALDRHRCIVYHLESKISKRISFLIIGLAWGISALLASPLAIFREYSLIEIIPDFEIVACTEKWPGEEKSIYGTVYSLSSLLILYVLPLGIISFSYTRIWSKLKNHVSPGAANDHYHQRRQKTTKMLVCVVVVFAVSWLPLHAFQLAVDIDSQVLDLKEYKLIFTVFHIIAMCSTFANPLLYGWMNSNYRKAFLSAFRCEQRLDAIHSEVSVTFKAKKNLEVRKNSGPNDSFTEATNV

[13] = biological target: T5, Zinc finger protein mex-5 (Caenorhabditis elegans, UniProt Q9XUB2); assay: MEX-5/TCR-2 RNA interaction inhibitors, dose response, biochemical, C. elegans, fluorescence polarization (AID 1960)
T5 sequence (Q9XUB2 whole entry): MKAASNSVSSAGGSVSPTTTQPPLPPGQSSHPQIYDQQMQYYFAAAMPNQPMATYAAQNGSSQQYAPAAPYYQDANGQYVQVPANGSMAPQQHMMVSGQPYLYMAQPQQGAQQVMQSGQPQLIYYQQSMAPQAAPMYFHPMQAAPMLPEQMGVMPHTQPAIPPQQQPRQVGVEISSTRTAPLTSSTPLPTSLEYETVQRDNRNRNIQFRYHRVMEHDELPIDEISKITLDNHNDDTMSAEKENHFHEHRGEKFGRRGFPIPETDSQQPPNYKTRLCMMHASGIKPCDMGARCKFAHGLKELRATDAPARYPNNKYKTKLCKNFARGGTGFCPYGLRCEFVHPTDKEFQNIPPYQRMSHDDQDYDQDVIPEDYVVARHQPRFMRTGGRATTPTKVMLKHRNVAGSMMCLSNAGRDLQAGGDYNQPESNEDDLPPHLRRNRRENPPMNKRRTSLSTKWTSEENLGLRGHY

[14] = C. albicans growth with fluconazole, confirmation, fluorescence, retest (AID 2467); assay type: functional, cell-based
[15] = biological target: T4, Neuropeptide Y receptor type 2; assay: Fluorescence-based cell-based high-throughput dose response assay for potentiators or agonists of NPY-Y2. [Related pubchem assays: 1539 (Screening assay (NPY-Y2 potentiators or agonists).), 1703 (Screening assay (CNGC inhibitors).), 1359 (Screening assay (NPY-Y2 potentiators or agonists).), 1304 (Screening assay (NPY-Y1 potentiators or agonists).) …; assay type: functional
[16] = biological target: T2, Neuropeptide Y receptor type 1; assay: Fluorescence-based counterscreen for agonists of NPY-Y2: cell-based high-throughput dose response assay for agonists of NPY-Y1.; assay type: functional
Nonstructural protein 1 = Nonstructural protein 1 (Influenza A virus, UniProt Q194T2); assay type: functional, Influenza A virus (A/California/07/2009(H1N1))
Sequence of Nonstructural protein 1 (Q194T2 whole entry): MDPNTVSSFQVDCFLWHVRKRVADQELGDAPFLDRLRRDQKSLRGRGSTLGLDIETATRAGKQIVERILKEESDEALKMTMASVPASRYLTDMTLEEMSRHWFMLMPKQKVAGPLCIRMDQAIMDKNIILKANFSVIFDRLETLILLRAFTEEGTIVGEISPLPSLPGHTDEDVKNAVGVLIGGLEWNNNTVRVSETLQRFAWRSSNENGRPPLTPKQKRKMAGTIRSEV

[17] = biological target: T6, Histone-lysine N-methyltransferase NSD2 (Homo sapiens, UniProt O96028); assay type: biochemical
T6 sequence (O96028 whole entry): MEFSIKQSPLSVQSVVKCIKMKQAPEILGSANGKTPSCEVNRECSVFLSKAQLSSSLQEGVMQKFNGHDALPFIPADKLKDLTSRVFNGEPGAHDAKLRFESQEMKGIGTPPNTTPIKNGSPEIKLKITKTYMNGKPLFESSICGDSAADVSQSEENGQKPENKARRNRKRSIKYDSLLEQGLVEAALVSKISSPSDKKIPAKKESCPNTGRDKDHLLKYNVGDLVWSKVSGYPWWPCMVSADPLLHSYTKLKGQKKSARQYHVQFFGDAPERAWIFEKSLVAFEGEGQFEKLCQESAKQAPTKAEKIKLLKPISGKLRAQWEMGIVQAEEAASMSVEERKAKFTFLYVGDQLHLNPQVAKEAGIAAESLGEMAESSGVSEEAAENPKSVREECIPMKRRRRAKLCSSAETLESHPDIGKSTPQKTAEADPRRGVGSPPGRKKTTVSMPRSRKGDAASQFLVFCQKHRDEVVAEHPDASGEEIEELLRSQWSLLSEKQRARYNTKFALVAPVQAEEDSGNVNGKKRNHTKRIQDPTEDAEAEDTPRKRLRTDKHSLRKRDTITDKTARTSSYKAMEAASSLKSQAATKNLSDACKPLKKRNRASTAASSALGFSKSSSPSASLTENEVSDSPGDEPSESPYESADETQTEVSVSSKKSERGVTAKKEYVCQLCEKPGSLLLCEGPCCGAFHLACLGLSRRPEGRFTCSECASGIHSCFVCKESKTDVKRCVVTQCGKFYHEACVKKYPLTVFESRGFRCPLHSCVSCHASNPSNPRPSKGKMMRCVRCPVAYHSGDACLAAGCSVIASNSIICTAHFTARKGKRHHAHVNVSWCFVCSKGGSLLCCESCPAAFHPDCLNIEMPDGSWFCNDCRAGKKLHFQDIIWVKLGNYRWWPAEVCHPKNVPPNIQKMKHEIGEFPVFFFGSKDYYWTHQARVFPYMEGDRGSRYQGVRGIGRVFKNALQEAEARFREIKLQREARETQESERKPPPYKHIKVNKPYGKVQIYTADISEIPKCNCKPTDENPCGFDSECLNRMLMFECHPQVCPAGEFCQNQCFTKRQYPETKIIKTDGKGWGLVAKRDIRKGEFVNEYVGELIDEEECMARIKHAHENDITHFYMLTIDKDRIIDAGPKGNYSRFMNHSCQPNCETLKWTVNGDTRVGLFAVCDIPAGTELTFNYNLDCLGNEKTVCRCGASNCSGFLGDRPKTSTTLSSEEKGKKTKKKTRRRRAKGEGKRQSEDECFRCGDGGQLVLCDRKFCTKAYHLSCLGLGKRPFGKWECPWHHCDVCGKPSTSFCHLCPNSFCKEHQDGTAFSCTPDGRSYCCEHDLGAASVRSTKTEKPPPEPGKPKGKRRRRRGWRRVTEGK

Estrogen receptor = Estrogen receptor (Homo sapiens, UniProt P03372); assay: potentiators of ERα–SRC-1 coactivator binding, dose response, biochemical, TR-FRET, ERα LBD (AID 737)
Sequence of Estrogen receptor (P03372 whole entry, the tested form may be a part): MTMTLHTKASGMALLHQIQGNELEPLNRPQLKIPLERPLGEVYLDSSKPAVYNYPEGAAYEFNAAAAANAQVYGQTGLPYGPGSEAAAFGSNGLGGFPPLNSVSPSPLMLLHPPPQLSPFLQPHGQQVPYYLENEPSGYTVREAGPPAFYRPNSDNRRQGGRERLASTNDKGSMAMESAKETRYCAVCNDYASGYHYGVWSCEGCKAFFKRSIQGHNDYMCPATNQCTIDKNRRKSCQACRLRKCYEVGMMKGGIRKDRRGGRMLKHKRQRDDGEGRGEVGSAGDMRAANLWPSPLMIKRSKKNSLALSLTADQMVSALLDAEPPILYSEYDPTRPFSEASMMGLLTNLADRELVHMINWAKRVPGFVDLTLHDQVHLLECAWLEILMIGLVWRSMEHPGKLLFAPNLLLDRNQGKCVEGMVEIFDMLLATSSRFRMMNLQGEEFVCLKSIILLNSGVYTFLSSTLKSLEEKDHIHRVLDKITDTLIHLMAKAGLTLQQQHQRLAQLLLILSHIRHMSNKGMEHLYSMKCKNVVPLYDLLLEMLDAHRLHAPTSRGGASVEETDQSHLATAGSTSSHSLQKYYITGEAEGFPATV

NADPH oxidase 1 [18] = biological target: T1, NADPH oxidase 1; assay type: functional, cell-based
[19] = biological target: T2, Neuropeptide Y receptor type 1; assay type: functional
[20] = biological target: T4, Neuropeptide Y receptor type 2; assay type: functional, cell-based

Sequence of Muscarinic acetylcholine receptor M1 (P08482 whole entry): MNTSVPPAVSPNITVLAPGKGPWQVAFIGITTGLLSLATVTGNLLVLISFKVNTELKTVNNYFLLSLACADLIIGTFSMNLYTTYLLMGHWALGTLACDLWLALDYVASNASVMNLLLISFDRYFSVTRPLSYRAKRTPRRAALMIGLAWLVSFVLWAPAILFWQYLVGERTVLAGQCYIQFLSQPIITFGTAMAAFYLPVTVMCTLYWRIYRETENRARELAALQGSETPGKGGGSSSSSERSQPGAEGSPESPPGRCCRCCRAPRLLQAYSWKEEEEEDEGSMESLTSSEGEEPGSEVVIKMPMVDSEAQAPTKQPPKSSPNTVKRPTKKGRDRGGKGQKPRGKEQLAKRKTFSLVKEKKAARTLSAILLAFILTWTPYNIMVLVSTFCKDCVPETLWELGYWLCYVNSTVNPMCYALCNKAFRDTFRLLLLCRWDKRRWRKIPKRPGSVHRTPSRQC

Question: What does the source list for `Cn1cc(-c2ccc(CN3C(=O)C(=O)c4ccccc43)cc2)cn1`?
Answer: EC50 [1]: 2.42 µM (active); EC50 [2]: 2.71 µM (active); EC50 [3]: 2.71 µM (active)

Question: For `CCN(CC)c1ccc(NC(=O)Nc2ccc(C(C)=O)cc2)cc1`, which IC50 (NADPH oxidase 1 [4]) is on record?
Answer: 252 nM (active)

Question: What about the IC50 [5] of the same compound?
Answer: 4.48 µM (not active)

Question: With `CC(=O)Nc1ccc(S(=O)(=O)N2CCN(Cc3nc(O)c4c(C)c(C)sc4n3)CC2)cc1` as the compound, how does the IC50 [6] read?
Answer: > 148 µM (not active)

Question: What about the IC50 [7] of the same compound?
Answer: > 111 µM (not active)

Question: For `O=C1/C(=C/c2ccc(O)c(O)c2)SC(=S)N1Nc1ccccc1`, which EC50 [8] is on record?
Answer: > 35.4 µM (not active)

Question: What about the IC50 [9] of the same compound?
Answer: 1.53 µM (active)

Question: What about the EC50 [10] of the same compound?
Answer: 41.6 µM (active)

Question: And the EC50 [11]?
Answer: 39.2 µM (active)

Question: And the EC50 (HEK293)?
Answer: > 35.4 µM (not active)

Question: And the EC50 [12]?
Answer: > 35.4 µM (not active)

Question: And the EC50 [13]?
Answer: 16.2 µM (active)

Question: What about the EC50 [14] of the same compound?
Answer: > 38 µM (not active)

Question: And the EC50 [15]?
Answer: 26.6 µM (not active)

Question: What about the EC50 [16] of the same compound?
Answer: > 11.8 µM (not active)

Question: And the IC50 (Nonstructural protein 1)?
Answer: 31.6 µM (active)

Question: And the AC50 [17]?
Answer: 1.49 µM (active)

Question: Which EC50 (Estrogen receptor) does the source give for `Cc1ccc(CN(Cc2cc3cc(C)ccc3[nH]c2=O)C(=O)N2CCOCC2)cc1` here?
Answer: 12.6 µM (not active)

Question: With `COc1ccccc1OC(=O)c1cc2ccccc2s1` as the compound, how does the IC50 (NADPH oxidase 1 [18]) read?
Answer: > 17 µM (not active)

Question: For `CCCCC(=O)N/N=C/c1ccc(N2CCOCC2)c([N+](=O)[O-])c1`, which IC50 [19] is on record?
Answer: 26.7 µM (not active)

Question: And the IC50 [20]?
Answer: 16.3 µM (not active)
